Converted amounts (≈) assume the structure as drawn. Where a name gives a salt, the structure may show the parent alone.
Columns and labels:
mushroom tyrosinase = experiment: Tyrosinase inhibition (mushroom tyrosinase, L-DOPA, dopachrome absorbance at 475 nm); format: biochemical; conditions: pH 6.8, 22° C., L-DOPA substrate; concentration with 40 to 60% inhibition in a minimum of two trials taken as IC50
Procedure: Inhibition tests were carried out using aqueous solvents. Saturated stock solutions were prepared by at least 48 hours before the tests were run, which were diluted appropriately upon use in order to increase the solubilities in the aqueous solvents of the lipophilic test compounds.
Tests were carried out according to conventional procedure as follows. That is, 0.01 to 0.02 ml of a mushroom tyrosinase solution (1,375 U/ml, Sigma Chemical Co.), 0.98 to 0.99 ml of a 0.07M phosphate buffer solution (pH 6.8) and 1 ml of a test solution with or without a test compound listed in Table 2 were mixed, and the resulting mixture was incubated at 22° C. for 8 minutes. Then, 1 ml of a 0.03% aqueous solution of I-DOPA (L-3,4-dihydroxyphenylalanine having a purity of 99%, Sigma Chemical Co.) was added thereto. After incubation at 22° C. for 2 minutes, the amount of dopachrome in the reaction mixture was measured as absorbance (optical density) at 475 nm. The change in absorbance with or without different test samples was monitored every 30 seconds for the following 2.5 minutes using a Beckman DU-64 spectrophotometer (Beckman, Palo Alto, Calif.).
Each test compound was repeatedly tested until the 50% inhibitory concentration (IC50) (μg/ml) was determined.
The percent inhibition was calculated according to the following equation: [formula] where A=Absorbance
^A final=Final absorbance
^A initial=Initial absorbance

tyrosinase = experiment: Tyrosinase inhibition (long exposure), melanin formation from L-tyrosine; format: biochemical; conditions: test solution 200 μg/ml, pH 6.8, 37° C., L-tyrosine substrate
Procedure: Tyrosinase inhibitory effects of the active compounds of this invention on long exposure were determined using […]. The method of Chen et al. (J. Agric. Food Chem., 39, 8, 1991) was adapted and scaled down for spectrophotometric analysis on a Bio Rad Model 3550 Microplate Reader (Bio-Rad, Richmond, Calif.), which uses 96-well plates. 20 μl of tyrosinase solution containing 0.02 mg/ml of tyrosinase (Sigma Chemical Company) and 76 μl of a test solution of citronellol, geraniol, or farnesol, adjusted to 200 μg/ml with a phosphate buffer solution (pH 6.8) were added to each well. After incubation at 37° C. for 8 minutes, 1 mM L-tyrosine (Sigma Chemical Company) was added as a substrate. Absorbance at 490 nm was measured every 60 seconds for up to 120 minutes to determine how much the amount of melanin produced from tyrosine substrate decreased as a result of the tyrosinase inhibition.

[1] = tested on: Mouse melanoma cell line (ATCC CRL 6322); experiment: Melanin formation inhibition in melanoma cells; format: cell-based; conditions: for inhibition at 250 µM: 0.25 mM; for inhibition at 500 µM: 0.5 mM
Procedure: Inhibitory effects on the melanin formation in melanoma cells were tested by the following procedure. Results obtained are shown in Table 5, together with the results obtained with arbutin as a control.
Mouse melanoma cell line (ATCC CRL 6322) was maintained in MEM medium (GIBCO BR, Gaitherburg, Md.) supplemented with 10% heat-inactivated fetal bovine serum described by Maeda (J. Cosmet. Chem., 42, 361 (1991)). More specifically, the cells were cultured on 6-well tissue culture plates (Falcon 3046) with various concentrations of each test compound listed in Table 5 below at 37° C., and at a humidity of 98%, in 5% carbon dioxide atmosphere for 4 days. Cell viability in all tests was determined by Trypan Blue exclusion. The culture media were aspirated, and 1.0 ml of an aqueous 0.25% trypsin solution and an aqueous 0.2% ethylenediaminetetraacetic acid (EDTA) solution were added to each well. Detached cells were placed in an Eppendorf tube, and centrifuged at 1,000 rpm for 5 minutes. The cell pellets thus obtained were mixed with 5% trichloroacetic acid, agitated well, and centrifuged 10,000 rpm to deposit melanin. The melanin pellets were mixed with 1N NaOH for dissolution, and the absorbance at 475 nm was measured, from which melanin formation inhibition (%) was calculated.

[2] = Mus musculus, 96 h, 4 days, 37° C.

Row | SMILES | IC50 (mushroom tyrosinase) [µg/mL] | further results
1 | CCCCCCCCCCO [Decanol] | 12.5 (≈ 79 µM) | –
2 | CCCCCCCCO [Octanol] | 12.5 (≈ 96 µM) | –
3 | CC(C)=CCC/C(C)=C/CO [Geraniol] | 6.3 (≈ 40.8 µM) | Inhibition Ratio (%) on Melanin Formation (tyrosinase; 0 minute): 0%; Inhibition Ratio (%) on Melanin Formation (tyrosinase; 30 minute): 37.3%; Inhibition Ratio (%) on Melanin Formation (tyrosinase; 120 minute): 48.5%; inhibition at 250 µM [1, 2]: 30%; inhibition at 500 µM [1, 2]: 18%
4 | CCCC(=O)OCCC(C)CCC=C(C)C (centres unmarked) [Citronellyl butyrate] | 37.5 (≈ 166 µM) | –
5 | CC(C)=CCCC(C)CCOC(=O)c1ccccc1 (centres unmarked) [Citronellyl benzoate] | 6.3 (≈ 24.2 µM) | –
6 | CCC(=O)OCCC(C)CCC=C(C)C (centres unmarked) [Citronellyl propionate] | 12.5 (≈ 58.9 µM) | –
7 | C=CC(C)CCCC(C)(C)O (centres unmarked) [Dihydromyrcenol] | 12.5 (≈ 80 µM) | –
8 | CC(C)=CCCC(C)=CCCC(C)=CCOC(=O)c1ccccc1 [Farnesyl benzoate] | 25.0 (≈ 76.6 µM) | –
9 | CC(C)=CCC/C(C)=C/COC(=O)C(C)C [Geranyl isobutyrate] | 12.5 (≈ 55.7 µM) | –
10 | C=CC(C)(O)CCC=C(C)CCC=C(C)C (centres unmarked) [Nerolidol] | 12.5 (≈ 56.2 µM) | –
11 | CC(C)=CCCC(C)CC=O (centres unmarked) [Citronellal] | 9.4 (≈ 60.9 µM) | –
12 | CC(C)=CCCC(C)CCOC(=O)C(C)C (centres unmarked) [Citronellyl isobutyrate] | 6.3 (≈ 27.8 µM) | inhibition at 250 µM [1, 2]: 31%; inhibition at 500 µM [1, 2]: 56%
13 | CC(C)=CCCC(C)=CCCC(C)=CCOC(=O)Cc1ccccc1 [Farnesyl phenylacetate] | 12.5 (≈ 36.7 µM) | –
14 | CC(C)=CCCC(C)CC#N (centres unmarked) [Citronellyinitrile, citronellylnitrile] | 9.4 (≈ 62.1 µM) | –
15 | CC(C)=CCCC(C)CCOC=O (centres unmarked) [Citronellyl formate] | 6.3 | –
16 | CC(C)=CCCC(C)=CCCC(C)=CCO [Farnesol] | 12.5 (≈ 56.2 µM) | Inhibition Ratio (%) on Melanin Formation (tyrosinase; 0 minute): 0%; Inhibition Ratio (%) on Melanin Formation (tyrosinase; 30 minute): 23.6%; Inhibition Ratio (%) on Melanin Formation (tyrosinase; 120 minute): 31.9%
17 | CC(C)=CCCC(C)CCO (centres unmarked) [Citronellol] | 6.3 (≈ 40.3 µM) | Inhibition Ratio (%) on Melanin Formation (tyrosinase; 0 minute): 0%; Inhibition Ratio (%) on Melanin Formation (tyrosinase; 30 minute): 39.6%; Inhibition Ratio (%) on Melanin Formation (tyrosinase; 120 minute): 43.8%; inhibition at 250 µM [1, 2]: 25%; inhibition at 500 µM [1, 2]: 25%
18 | OC[C@H]1O[C@@H](Oc2ccc(O)cc2)[C@H](O)[C@@H](O)[C@@H]1O [Arbutin, reference compound] | 63 (≈ 231 µM) | inhibition at 125 µM ([1]; Mus musculus, 96 h, 0.125 mM, 4 days, 37° C.): 58%; inhibition at 250 µM [1, 2]: 53%; melanin formation inhibition in melanoma cells ([1]; summary of Table 5, aqueous system): exhibited higher inhibitory effects than the active compounds of the present invention
19 | CC(C)=CCCC(C)=CCCC(C)=CCOC(=O)C(C)C [Farnesyl isobutyrate] | 12.5 (≈ 42.7 µM) | –
20 | CC(=O)OCCC(C)CCC=C(C)C (centres unmarked) [Citronellyl acetate] | 18.8 | –
